From patent US12006373B1, “Identification and evaluation of novel peptide ligands specific to human CD3 epsilon” (Board of Trustees of the University of Alabama, for and on …, priority 2020, dated 2024)

What was measured:
[1] = test system: 2PK3 mouse B lymphoma cells; conditions: varying tetramer concentrations; cells lack TCR-CD3
[2] = target: T1, CD3ε expressed on Jurkat cells (Homo sapiens, UniProt P07766); assay: Binding assay of peptide tetramers on Jurkat cells by flow cytometry; conditions: for Kd: peptide tetramer on Alexa Fluor 488 streptavidin, CD3ε-expressing Jurkat cells, read-out: affinity (Kd); for binding of peptide tetramers to Jurkat cells: varying tetramer concentrations, 30 minutes on ice
T1 construct: against CD3ε expressed on Jurkat cells; host or cells: Jurkat T cells (E6-1)
T1 sequence (P07766 23-207): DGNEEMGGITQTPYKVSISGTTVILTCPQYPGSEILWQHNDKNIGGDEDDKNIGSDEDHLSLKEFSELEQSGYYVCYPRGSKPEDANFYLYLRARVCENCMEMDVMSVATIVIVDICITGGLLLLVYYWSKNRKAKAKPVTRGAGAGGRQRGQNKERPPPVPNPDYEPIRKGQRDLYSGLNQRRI
T1 sequence (P09693 23-182 partner): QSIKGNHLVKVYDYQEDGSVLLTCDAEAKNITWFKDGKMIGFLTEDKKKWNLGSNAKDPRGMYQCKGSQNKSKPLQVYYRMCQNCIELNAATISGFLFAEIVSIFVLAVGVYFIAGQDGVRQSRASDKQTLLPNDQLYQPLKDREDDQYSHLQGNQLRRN
T1 sequence (P04234 22-171 partner): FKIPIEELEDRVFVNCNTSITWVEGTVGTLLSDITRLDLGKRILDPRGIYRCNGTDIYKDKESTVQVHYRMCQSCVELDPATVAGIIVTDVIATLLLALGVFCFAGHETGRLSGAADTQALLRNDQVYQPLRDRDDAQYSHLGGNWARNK
T1 sequence (P20963 22-164 partner): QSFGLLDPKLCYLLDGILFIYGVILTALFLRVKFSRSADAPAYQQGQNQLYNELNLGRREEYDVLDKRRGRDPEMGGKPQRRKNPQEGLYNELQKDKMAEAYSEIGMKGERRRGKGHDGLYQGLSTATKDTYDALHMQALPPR
T1 sequence (P01848 whole entry partner): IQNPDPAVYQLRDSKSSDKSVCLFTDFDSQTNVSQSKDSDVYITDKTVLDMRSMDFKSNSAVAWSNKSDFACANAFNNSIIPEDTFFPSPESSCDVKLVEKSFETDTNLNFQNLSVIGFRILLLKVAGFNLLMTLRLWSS
T1 sequence (P01850 whole entry partner): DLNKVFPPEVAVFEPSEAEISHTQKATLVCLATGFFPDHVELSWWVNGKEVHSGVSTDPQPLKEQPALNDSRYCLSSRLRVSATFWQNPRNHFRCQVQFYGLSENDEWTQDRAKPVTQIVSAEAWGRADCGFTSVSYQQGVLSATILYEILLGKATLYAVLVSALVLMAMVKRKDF
Procedure: The results were analyzed using FlowJo software.

[3] = target: T2, human recombinant CD3ε protein (Homo sapiens, UniProt P07766); assay: Biopanning of Ph.D.-7 phage display peptide library, sequencing of plaques; conditions: after the 5th round of biopanning, 18 out of 20 plaques; phage clone displaying the sequence
T2 construct: purchased Sino Biological
T2 sequence (P07766 23-207): as the sequence (P07766 23-207) above
Procedure: 1.2 Biopanning: Screening of the Ph.D.-7 phage display peptide library on human recombinant CD3ε protein as the target protein was carried out according to the manufacturer's protocol with modifications. Briefly, 50 μl of a 50% aqueous suspension of Pierce protein A/G magnetic beads was washed with 1 ml of TBST washing buffer (tris-buffered saline with 0.1% tween) on a magnetic separator and blocked in blocking buffer (0.1 M NaHCO3 (pH 8.6) with 0.5% (w/v) BSA) for 1 h at 4° C. on a rotator. Two picomoles of target protein was mixed with 10^11 pfu (plaque-forming unit) of the phage library in 200 μl of TBST buffer and incubated for 15 minutes at room temperature on a rotator and then incubated with pre-washed and pre-blocked magnetic beads for 15 minutes at room temperature on a rotator. After the microbeads were washed vigorously for 15 times with 1 ml TBST, the bound phage was eluted by 1 ml of glycine buffer (0.2 M Glycine-HCl (pH 2.2)+0.1% (w/v) BSA) and neutralized by addition of 150 μl of 1 M Tris-HCl (pH 9.1). […]
1.3 DNA Sequencing of Phage Clones: After the third and fifth round of biopanning, the ssDNA of selected phage clones was harvested following the standard protocol (NEB). […] The purified DNA of each clone was sequenced by Sanger sequencing (UAB Genomics Core Laboratories) using the −96 gIII primer and analyzed using Geneious Prime 2019 software suite.

share of tested plaques occupied by the clone [3] | Substance | binding of peptide tetramers to 2PK3 cells [1] | Kd [2] | binding of peptide tetramers to Jurkat cells [2]
 | FWSSPQMGGGS [SEQ ID NO: 30]-PEG6-K-biotin [anti-CD3ε peptide 11 tetramer] | no specific attachment | ~100 µM | incremental binding to the Jurkat cells in a dose-dependent manner
90% | WSLGYTG [anti-CD3ε peptide 13] |  |  | 
 | WSLGYTGGGGS [SEQ ID NO: 31]-PEG6-K-biotin [anti-CD3ε peptide 13 tetramer] | no specific attachment | ~100 µM | incremental binding to the Jurkat cells in a dose-dependent manner
